The values below are quoted from earlier work in PubChem BioAssay AID1259409 (Chemical Carcinogenesis Research Information System (CCRIS), 2018).

The subject of this data set is rodent chemically induced tumor inhibition, incidence and multiplicity. As to the kind of experiment: CCRIS tumor inhibitor studies.

In the case of `O=C(OC[C@@H]1O[C@H](OC(=O)c2cc(O)c(O)c(OC(=O)c3cc(O)c(O)c(O)c3)c2)[C@@H](OC(=O)c2cc(O)c(O)c(OC(=O)c3cc(O)c(O)c(O)c3)c2)[C@H](OC(=O)c2cc(O)c(O)c(OC(=O)c3cc(O)c(O)c(O)c3)c2)[C@H]1OC(=O)c1cc(O)c(O)c(OC(=O)c2cc(O)c(O)c(O)c2)c1)c1cc(O)c(O)c(OC(=O)c2cc(O)c(O)c(O)c2)c1`, the “tumour outcome (control, treated, inhibition, significance)” value reads like this: (Carcinogen: 2,2'-DIHYDROXY-DI-N-PROPYLNITROSAMINE, 53609-64-6, N-ETHYL-N-HYDROXYETHYLNITROSAMINE, 13147-25-6, 3,2'-DIMETHYL-4-AMINO-, Carcinogen: 2,2'-DIHYDROXY-DI-N-PROPYLNITROSAMINE, 53609-64-6, N-ETHYL-N-HYDROXYETHYLNITROSAMINE, 13147-25-6, 3,2'-DIMETHYL-4-AMINO-, Dose [Inhibitor]: 0, 1% IN DIET FOR 32 WK BEGINNING 1 WK POST CARCINOGEN TREATMENT (STUDY DURATION: 36 WK), Route [Inhibitor]: ORAL, Species: RAT, Strain/Sex: F344/MALE, Target Tissue: Type of Lesion: KIDNEY: TRANSITIONAL CELL CARCINOMA, Dose [Carcinogen]: 1000 MG/KG BW DHPN TWICE, 1500 MG/KG BW EHEN TWICE, 75 MG/KG BW DMAB 3 TIMES ADMINISTERED OVER FIRST 3 WK, Promoter: NONE USED) 1/14 (7%), 0/12 (0%), 100%, not significant; (Carcinogen: 2,2'-DIHYDROXY-DI-N-PROPYLNITROSAMINE, 53609-64-6, N-ETHYL-N-HYDROXYETHYLNITROSAMINE, 13147-25-6, 3,2'-DIMETHYL-4-AMINO-, Carcinogen: 2,2'-DIHYDROXY-DI-N-PROPYLNITROSAMINE, 53609-64-6, N-ETHYL-N-HYDROXYETHYLNITROSAMINE, 13147-25-6, 3,2'-DIMETHYL-4-AMINO-, Dose [Inhibitor]: 0, 1% IN DIET FOR 32 WK BEGINNING 1 WK POST CARCINOGEN TREATMENT (STUDY DURATION: 36 WK), Route [Inhibitor]: ORAL, Species: RAT, Strain/Sex: F344/MALE, Target Tissue: Type of Lesion: LARGE INTESTINE: ADENOMA, Dose [Carcinogen]: 1000 MG/KG BW DHPN TWICE, 1500 MG/KG BW THEN TWICE, 75 MG/KG BW DMAB 3 TIMES ADMINISTERED OVER FIRST 3 WK, Dose [Carcinogen]: 1000 MG/KG BW DHPN TWICE, 1500 MG/KG BW THEN TWICE, 75 MG/KG BW DMAB 3 TIMES ADMINISTERED OVER FIRST 3 WK, Promoter: NONE USED) 7/14 (50%), 2/12 (17%), 66%, not significant; (Carcinogen: 2,2'-DIHYDROXY-DI-N-PROPYLNITROSAMINE, 53609-64-6, N-ETHYL-N-HYDROXYETHYLNITROSAMINE, 13147-25-6, 3,2'-DIMETHYL-4-AMINO-, Carcinogen: 2,2'-DIHYDROXY-DI-N-PROPYLNITROSAMINE, 53609-64-6, N-ETHYL-N-HYDROXYETHYLNITROSAMINE, 13147-25-6, 3,2'-DIMETHYL-4-AMINO-, Dose [Inhibitor]: 0, 1% IN DIET FOR 32 WK BEGINNING 1 WK POST CARCINOGEN TREATMENT (STUDY DURATION: 36 WK), Route [Inhibitor]: ORAL, Species: RAT, Strain/Sex: F344/MALE, Target Tissue: Type of Lesion: LARGE INTESTINE: CARCINOMA, Dose [Carcinogen]: 1000 MG/KG BW DHPN TWICE, 1500 MG/KG BW THEN TWICE, 75 MG/KG BW DMAB 3 TIMES ADMINISTERED OVER FIRST 3 WK, Promoter: NONE USED) 3/14 (21%), 1/12 (8%), 62%, not significant; (Carcinogen: 2,2'-DIHYDROXY-DI-N-PROPYLNITROSAMINE, 53609-64-6, N-ETHYL-N-HYDROXYETHYLNITROSAMINE, 13147-25-6, 3,2'-DIMETHYL-4-AMINO-, Carcinogen: 2,2'-DIHYDROXY-DI-N-PROPYLNITROSAMINE, 53609-64-6, N-ETHYL-N-HYDROXYETHYLNITROSAMINE, 13147-25-6, 3,2'-DIMETHYL-4-AMINO-, Dose [Inhibitor]: 0, 1% IN DIET FOR 32 WK BEGINNING 1 WK POST CARCINOGEN TREATMENT (STUDY DURATION: 36 WK), Route [Inhibitor]: ORAL, Species: RAT, Strain/Sex: F344/MALE, Target Tissue: Type of Lesion: LIVER: HEPATOCELLULAR CARCINOMA, Dose [Carcinogen]: 1000 MG/KG BW DHPN TWICE, 1500 MG/KG BW THEN, 75 MG/KG BW DMAB 3 TIMES ADMINISTERED OVER FIRST 3 WKS, Promoter: NONE USED) 6/14 (43%), 3/12 (25%), 42%, not significant; (Carcinogen: 2,2'-DIHYDROXY-DI-N-PROPYLNITROSAMINE, 53609-64-6, N-ETHYL-N-HYDROXYETHYLNITROSAMINE, 13147-25-6, 3,2'-DIMETHYL-4-AMINO-, Carcinogen: 2,2'-DIHYDROXY-DI-N-PROPYLNITROSAMINE, 53609-64-6, N-ETHYL-N-HYDROXYETHYLNITROSAMINE, 13147-25-6, 3,2'-DIMETHYL-4-AMINO-, Dose [Inhibitor]: 0, 1% IN DIET FOR 32 WK BEGINNING 1 WK POST CARCINOGEN TREATMENT (STUDY DURATION: 36 WK), Route [Inhibitor]: ORAL, Species: RAT, Strain/Sex: F344/MALE, Target Tissue: Type of Lesion: LUNG: ADENOMA, Dose [Carcinogen]: 1000 MG/KG BW DHPN TWICE, 1500 MG/KG BW THEN TWICE, 75 MG/KG BW DMAB 3 TIMES ADMINISTERED OVER FIRST 3 WK, Dose [Carcinogen]: 1000 MG/KG BW DHPN TWICE, 1500 MG/KG BW THEN TWICE, 75 MG/KG BW DMAB 3 TIMES ADMINISTERED OVER FIRST 3 WK, Promoter: NONE USED) 7/14 (50%), 7/12 (58%), -16%, not significant; (Carcinogen: 2,2'-DIHYDROXY-DI-N-PROPYLNITROSAMINE, 53609-64-6, N-ETHYL-N-HYDROXYETHYLNITROSAMINE, 13147-25-6, 3,2'-DIMETHYL-4-AMINO-, Carcinogen: 2,2'-DIHYDROXY-DI-N-PROPYLNITROSAMINE, 53609-64-6, N-ETHYL-N-HYDROXYETHYLNITROSAMINE, 13147-25-6, 3,2'-DIMETHYL-4-AMINO-, Dose [Inhibitor]: 0, 1% IN DIET FOR 32 WK BEGINNING 1 WK POST CARCINOGEN TREATMENT (STUDY DURATION: 36 WK), Route [Inhibitor]: ORAL, Species: RAT, Strain/Sex: F344/MALE, Target Tissue: Type of Lesion: LUNG: CARCINOMA, Dose [Carcinogen]: 1000 MG/KG BW DHPN TWICE, 1500 MG/KG BW THEN TWICE, 75 MG/KG BW DMAB 3 TIMES ADMINISTERED OVER FIRST 3 WK, Promoter: NONE USED) 1/14 (7%), 2/12 (17%), -143%, not significant. Further, the “tumour outcome (control, treated, inhibition, significance)” value (Carcinogen: 2,2'-DIHYDROXY-DI-N-PROPYLNITROSAMINE, 53609-64-6, N-ETHYL-N-HYDROXYETHYLNITROSAMINE, 13147-25-6, 3,2'-DIMETHYL-4-AMINO-, Carcinogen: 2,2'-DIHYDROXY-DI-N-PROPYLNITROSAMINE, 53609-64-6, N-ETHYL-N-HYDROXYETHYLNITROSAMINE, 13147-25-6, 3,2'-DIMETHYL-4-AMINO-, Dose [Inhibitor]: 0, 1% IN DIET FOR 32 WK BEGINNING 1 WK POST CARCINOGEN TREATMENT (STUDY DURATION: 36 WK), Route [Inhibitor]: ORAL, Species: RAT, Strain/Sex: F344/MALE, Target Tissue: Type of Lesion: THYROID GLAND: CARCINOMA, Dose [Carcinogen]: 1000 MG/KG BW DHPN TWICE, 1500 MG/KG BW THEN TWICE, 75 MG/KG BW DMAB 3 TIMES ADMINISTERED OVER FIRST 3 WK, Promoter: NONE USED) is recorded as 3/14 (21%), 2/12 (17%), 19%, not significant; the “tumour outcome (control, treated, inhibition, significance)” value (Carcinogen: 2,2'-DIHYDROXY-DI-N-PROPYLNITROSAMINE, 53609-64-6, N-ETHYL-N-HYDROXYETHYLNITROSAMINE, 13147-25-6, 3,2'-DIMETHYL-4-AMINO-, Carcinogen: 2,2'-DIHYDROXY-DI-N-PROPYLNITROSAMINE, 53609-64-6, N-ETHYL-N-HYDROXYETHYLNITROSAMINE, 13147-25-6, 3,2'-DIMETHYL-4-AMINO-, Dose [Inhibitor]: 0, 1% IN DIET FOR 32 WK BEGINNING 1 WK POST CARCINOGEN TREATMENT (STUDY DURATION: 36 WK), Route [Inhibitor]: ORAL, Species: RAT, Strain/Sex: F344/MALE, Target Tissue: Type of Lesion: URINARY BLADDER: CARCINOMA, Dose [Carcinogen]: 1000 MG/KG BW DHPN TWICE, 1500 MG/KG BW THEN TWICE, 75 MG/KG BW DMAB 3 TIMES ADMINISTERED OVER FIRST THREE WEEKS, Promoter: NONE USED) is 1/14 (7%), 2/12 (17%), -143%, not significant; the “tumour outcome (control, treated, inhibition, significance)” value (Carcinogen: 7,12-DIMETHYLBENZ(A)ANTHRACENE [57-97-6], Dose [Inhibitor]: 400 UG IN 200 µL ACETONE ONCE 24 HR AFTER THE LAST INJECTION OF IRON DEXTRAN (STUDY DURATION: 35 WKS), Route [Inhibitor]: DERMAL, Species: MOUSE, Strain/Sex: SWISS ALBINO/FEMALE, Target Tissue: Type of Lesion: SKIN: TUMORS, Dose [Carcinogen]: 40 UG IN 200 µL ACETONE DAILY FOR 5 D BEGINNING 1 HR AFTER TANNIC ACID TREATMENT (STUDY DURATION: 35 WKS), Promoter: IRON DEXTRAN [9004-66-4]) is given as 70%, 10%, 86%, not calculated; the “tumour outcome (control, treated, inhibition, significance)” value (Carcinogen: 7,12-DIMETHYLBENZ(A)ANTHRACENE [57-97-6], Dose [Inhibitor]: 400 UG IN 200 µL ACETONE ONCE (STUDY DURATION: 35 WKS), Route [Inhibitor]: DERMAL, Species: MOUSE, Strain/Sex: SWISS ALBINO/FEMALE, Target Tissue: Type of Lesion: SKIN: TUMORS, Dose [Carcinogen]: 40 UG IN 200 µL ACETONE DAILY FOR 5 D BEGINNING 1 HR AFTER TANNIC ACID TREATMENT (STUDY DURATION: 35 WKS)) is reported as 40%, 0%, 100%, not calculated. Moreover, the outcome (Carcinogen: 2,2'-DIHYDROXY-DI-N-PROPYLNITROSAMINE, 53609-64-6, N-ETHYL-N-HYDROXYETHYLNITROSAMINE, 13147-25-6, 3,2'-DIMETHYL-4-AMINO-, Carcinogen: 2,2'-DIHYDROXY-DI-N-PROPYLNITROSAMINE, 53609-64-6, N-ETHYL-N-HYDROXYETHYLNITROSAMINE, 13147-25-6, 3,2'-DIMETHYL-4-AMINO-, Dose [Inhibitor]: 0, 1% IN DIET FOR 32 WK BEGINNING 1 WK POST CARCINOGEN TREATMENT (STUDY DURATION: 36 WK), Route [Inhibitor]: ORAL, Species: RAT, Strain/Sex: F344/MALE, Target Tissue: Type of Lesion: URINARY BLADDER: PAPILLOMA, Dose [Carcinogen]: 1000 MG/KG BW DHPN TWICE, 1500 MG/KG BW THEN TWICE, 75 MG/KG BW DMAB 3 TIMES ADMINISTERED OVER FIRST 3 WK, Promoter: NONE USED) is listed as 0/14 (0%), 3/12 (25%), -100%, not significant.
